The test system of one assay is I-adrenerigic receptors. The assay can be described thus: interaction with I-adrenergic receptors. It counts as binding.
Assay [1] has as its system muscarinic cholinergic receptors. The assay can be described thus: interaction with muscarinic cholinergic receptors. It counts as binding.
The conditions of assay [2]: in vivo; cited from earlier work.

On to `CCOc1ccccc1OC(c1ccccc1)C1CNCCO1` (stereo not shown) [Reboxetine], for which the “serotonin uptake inhibitory activity” value in the assay with serotonin uptake was “only marginal”. For the same molecule, the “norepinephrine uptake inhibitory activity” value in the assay on norepinephrine uptake was “highly selective norepinephrine uptake inhibitor”. Also, in the assay on I-adrenerigic receptors, the “interaction with I-adrenerigic receptors” value is “without showing any appreciable interaction”. The “monoamine oxidase (MAO) inhibitory activity” value with monoamine oxidase (MAO) is “devoid of monoamine oxidase (MAO) inhibitory activity”. Besides, the “interaction with muscarinic cholinergic receptors” value in assay [1] was “without showing any appreciable interaction”. Further, in assay [2], the “effect in the 8-OH-DPAT hypothermia test” value is on record as “ineffective”. The “dopamine uptake inhibitory activity” value with dopamine uptake is listed as “no dopamine uptake inhibitory activity”.

(Values after patent US6586427B2, “Treatments for nervous disorders” (Pharmacia & Upjohn Company, priority 1998, dated 2003).)
